{"source": "patent US8968801B1", "about": "“Supplement composition for supporting DNA repair and method of use” (Cellhealth Technologies Ltd., priority 2011, dated 2015)", "origin": "cited, not measured here", "system": "ras-transformed human mammary epithelial cells", "conditions": "eupatilin derived from artemisia plants (Kim D H, et al. 2004)", "data": [{"smiles": "COc1ccc(-c2cc(=O)c3c(O)c(OC)c(O)cc3o2)cc1OC", "note": "[eupatilin]", "values": [{"measurement": "cell cycle arrest", "result": "induces cell cycle arrest"}]}]}
